{"source": "patent US11857535B2", "about": "“Methods of treating mutant lymphomas” (Kymera Therapeutics, Inc., priority 2020, dated 2024)", "key": {"[1]": {"test": "Solubility in oral dosing vehicle", "assay_type": "physicochemical", "conditions": "10% HP-β-CD vehicle (oral dosing vehicle), aqueous with cosolvent or surfactant or cyclodextrin; 10% HP-β-CD in water at pH 3.5 (w/v), 25 C; read-out: measured solubility", "experimental": "Formulation: 10% HP-β-CD in water at pH 3.5 (w/v) in water at pH 3.5 (w/v) • Prepare the 10% HP-β-CD vehicle on a (w/v) basis • Add compound with stirring. • Heat to ˜50 C for 10 minutes. Can also sonicate. • Adjust pH to 3.5. • Heat for another 10-20 minutes at ˜50 C. • Check and adjust the pH as needed. • Expect solution as the measured solubility was 10 mg/mL at 25 C."}, "[2]": {"test": "7.3 Pharmacokinetic characterization, single or repeated oral administration, cynomolgus monkeys", "conditions": "cynomolgus monkey, in vivo, PO dosing in NHP", "source_text": "7.3 Pharmacokinetic Characterization of Compound A following Single or Repeated Oral Administrations to Male and Female Cynomolgus Monkeys\nThe objective of this study is to determine the pharmacokinetics of Compound A following single or repeated oral administrations of Compound A in male and female cynomolgus monkeys. The test article will be measured in plasma at selected time points for up to 14 days post dosing.\nFormulation: 10% HP-β-CD in water at pH 3.5 (w/v) in water at pH 3.5 (w/v) • Prepare the 10% HP-β-CD vehicle on a (w/v) basis • Add compound with stirring. • Heat to ˜50 C for 10 minutes. […]\nLC-MS/MS method development: • 1. A LC-MS/MS method for the quantitative determination of test compound in biological matrix will be developed under non-GLP compliance. • 2. […] N in 1 cassette LC-MS/MS method can be developed for samples coming from different studies as long as these studies belong to same sponsor and the interference among all cassette analytes will be evaluated during the method development. • 5. […] If such kind cassette assay is still requested by the study sponsor, interference between analytes will not be evaluated but the LC separation of those analytes by using a generic method will be tried. […] Biological sample in matrix other than plasma can be diluted with plasma first and then quantified against plasma calibration curve. […]"}, "[3]": {"test": "Human dose prediction by matching AUCs with intermittent dosing regimens in mice models", "conditions": "mouse, read-out: Weekly AUC", "experimental": "Human dose predictions from intermittent dosing supports dose targets for both IV and PO dosing.\nIV formulation up to 300 mg/dose is feasible (exposure for efficacy is 100-300 mg/dose). Dosing to ≥400 mg likely possible (>80% POS based on initial formulation assessment). Projected PO upper dose of 900 mg/day is feasible. May be divided into BID dosing to achieve exposure. High pill burden or unusual formulation strategy (e.g., mix and drink) may be needed. PO versus IV dosing in compared in Table 14."}, "IRAK4": {"molecular_target": "T1, IRAK4 (Homo sapiens, UniProt Q9NWZ3)", "T1 construct": "endogenous in cells; host or cells: OCI-Ly10", "T1 sequence (Q9NWZ3 1-460)": "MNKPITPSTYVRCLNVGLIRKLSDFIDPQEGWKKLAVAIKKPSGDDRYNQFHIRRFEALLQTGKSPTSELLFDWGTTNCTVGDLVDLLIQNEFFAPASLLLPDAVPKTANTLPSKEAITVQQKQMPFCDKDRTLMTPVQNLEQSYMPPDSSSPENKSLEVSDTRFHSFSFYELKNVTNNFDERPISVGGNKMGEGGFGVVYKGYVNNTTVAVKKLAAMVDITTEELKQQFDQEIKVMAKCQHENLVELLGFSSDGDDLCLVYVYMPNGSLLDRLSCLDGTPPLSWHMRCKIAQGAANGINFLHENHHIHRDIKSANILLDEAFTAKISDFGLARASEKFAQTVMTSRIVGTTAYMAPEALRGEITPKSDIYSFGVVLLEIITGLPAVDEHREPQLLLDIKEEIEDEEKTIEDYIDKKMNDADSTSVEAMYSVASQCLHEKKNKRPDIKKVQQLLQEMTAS", "test": "Deep proteomics / degradation time course in OCI-Ly10 (FIG. 8)", "assay_type": "cell-based", "conditions": "OCI-Ly10, between 16-24 h post treatment", "source_text": "FIG. 8 depicts deep proteomics scatterplots showing degradation of IRAK4 and IMiD substrates in OCI-Ly10 using Compound A. Type 1 IFN signaling was activated in OCI-Ly10 MYD88^MT DLBCL."}}, "note": "Where two headings read alike, the source gives them in different places."}
{"compound": "CC(C)(O)c1cc2nc([C@H]3CC[C@H](CN4CC5(CC(CCNc6cccc7c6C(=O)N(C6CCC(=O)NC6=O)C7=O)C5)C4)CC3)sc2cc1NC(=O)c1cccc(C(F)(F)F)n1", "note": "(stereo partly shown) [Compound A, N-(2-((1r,4r)-4-((6-(2-((2-(2,6-dioxopiperidin-3-yl)-1,3-dioxoisoindolin-4-yl)amino)ethyl)-2-azaspiro[3.3]heptan-2-yl)methyl)cyclohexyl)-5-(2-hydroxypropan-2-yl)benzo[d]thiazol-6-yl)-6-(trifluoromethyl)picolinamide]", "values": [{"measurement": "solubility", "setting": "[1]", "value": 10000, "unit": "µg/mL"}, {"measurement": "Target AUC0-168 exposure range", "setting": "[2]; schedule D1, D4, read-out: Target exposure Range (Ly10-DHL2) AUC0-168", "value": "7 to 18", "unit": "µM·h"}, {"measurement": "Target AUC0-168 exposure range", "setting": "[2]; schedule D1, read-out: Target exposure Range (Ly10-DHL2) AUC0-168", "value": "18 to 54", "unit": "µM·h"}, {"measurement": "AUC", "setting": "[3]; 3 mg/kg, OCI-Ly10 model, IV 3 mpk BIW", "value": 12, "unit": "µM·h"}, {"measurement": "AUC", "setting": "[3]; 10 mg/kg, OCI-Ly10 model, PO 10 mpk BIW", "value": 7, "unit": "µM·h"}, {"measurement": "AUC at 1 week", "setting": "[3]; 12 mg/kg, OCI-Ly10 model, IV 12 mpk QW", "value": 24, "unit": "µM·h"}, {"measurement": "AUC", "setting": "[3]; 30 mg/kg, DHL2 model, PO 30 mpk BIW", "value": 18, "unit": "µM·h"}, {"measurement": "AUC at 1 week", "setting": "[3]; 30 mg/kg, OCI-Ly10 model, PO 30 mpk QW", "value": 18, "unit": "µM·h"}, {"measurement": "AUC", "setting": "[3]; DHL2 model, IV ~10 (est.) mpk BIW, estimated", "value": "~36", "unit": "µM·h"}, {"measurement": "degradation of IRAK4 (time course)", "setting": "IRAK4", "value": "> 80", "unit": "%"}]}
